US20200157048A1, “(2E,4E)-5-PHENYL-PENTA-2,4-DIEN-1-ONE DERIVATIVE” (BIOWAY., INC, priority 2018, published 2020)
Entries after “also recorded” stand apart in the source; their conditions may differ.

Columns and labels:
[1] = test system: Fgf21 mRNA; test: qRT-PCR Fgf21 mRNA level in steatosis-induced Huh-7 cells; format: cell-based, Human; conditions: steatosis-induced (OA/PA) Huh-7 cells; 10 μM; 24 hours
Description: (§1) In Experimental Example 5, the Huh-7 cells were plated in 6 wells at 4×10^5 cells/mL and incubated under an atmosphere containing 5% CO2 at 37° C.
(§2) One day later, the cell density approached about 80 to 90%. The medium was changed to an FBS-free RPMI1640 medium, and incubated under an atmosphere containing 5% CO2 at 37° C. for 24 hours.
(§3) Huh-7 cells of each well, excluding control cells, were pretreated with an OA/PA mixture for one hour to induce steatosis. The control cells were pretreated with 1% FA-free BSA.
(§4) Each well was treated with 10 μM of a test compound, and then the cells were incubated for 24 hours. The control cells and OA/PA-treated cells were treated with DMSO. Cells of a positive control were treated with 10 μM of resveratrol, 10 μM of piperine, and 10 μM of YU2014. The medium was entirely aspirated, and the cells were washed with PBS (phosphate buffered saline, Corning, Manassas, Va., USA) two times.
(§5) Total RNA was extracted using a RNeasy RNA isolation kit (Qiagen, Hilden, Germany).
(§6) 10 μL of β-mercaptoethanol (Sigma-Aldrich) per 1 mL of lysis buffer was added, thereby preparing an RNA lysis buffer. […]
(§7) An RNA concentration was measured at O.D. 260 nm using a nanophotometer N60 (Implen, Munich, Germany). The concentration and purity of RNA were measured at O.D. 260/280 nm and calculated as a ratio. […]
(§8) Quantitative analyses for the genes in Table 3 were performed.

[2] = test system: Fas mRNA; test: qRT-PCR Fas mRNA level in steatosis-induced Huh-7 cells; format: cell-based, Human; conditions: steatosis-induced (OA/PA) Huh-7 cells; 10 μM; 24 hours
Description: as §1, §2, §3, §4, §5, §6, §7, §8

[3] = test system: Srebp1c mRNA; test: qRT-PCR Srebp1c mRNA level in steatosis-induced Huh-7 cells; format: cell-based, Human; conditions: steatosis-induced (OA/PA) Huh-7 cells; 10 μM; 24 hours
Description: as §1, §2, §3, §4, §5, §6, §7, §8

[4] = molecular target: T1, CK2 (Homo sapiens, UniProt P68400); test: CK2 kinase assay (CycLex CK2 kinase assay/inhibitor screening kit); format: biochemical; conditions: 20 μM
T1 construct: purchased New England Biolabs (Ipswich, Mass., USA)
Description: All materials were provided from a CycLex CK2 kinase assay/inhibitor screening kit (Medical and Biological Laboratories CO., LTD, Nagoya, Japan).
All specimens were prepared in triplicate.
10 μL of a diluted sample was added to a 96-well plate placed on ice.
Three wells having 10 μL of a CK2α positive control (2 unit/μL) were included as a positive control in each analysis method. CK2α was purchased from New England Biolabs (Ipswich, Mass., USA).
A phosphorylation reaction was initiated by adding 90 μL of a phosphorylation reaction buffer to each well, and the 96-well plate was covered with a plate cover. The plate was incubated at 30° C. for 30 minutes. Each well was washed with a washing buffer five times, and it was confirmed whether each well was completely filled. With gentle tapping, a residual washing solution was removed.
100 μL of HRP-conjugated detection antibodies were added to each well, and the plate was covered with a plate cover. While the plate was incubated at room temperature (25 to 30° C.) for 30 minutes, the remaining HRP-conjugated detection antibodies after use were removed. Each well was washed five times, and the residual washing buffer was removed with gentle tapping. […]
Absorbance at dual wavelengths of 450/540 nm was measured for each well using Cytation 5. Data was analyzed.

T1 sequence (P68400 whole entry): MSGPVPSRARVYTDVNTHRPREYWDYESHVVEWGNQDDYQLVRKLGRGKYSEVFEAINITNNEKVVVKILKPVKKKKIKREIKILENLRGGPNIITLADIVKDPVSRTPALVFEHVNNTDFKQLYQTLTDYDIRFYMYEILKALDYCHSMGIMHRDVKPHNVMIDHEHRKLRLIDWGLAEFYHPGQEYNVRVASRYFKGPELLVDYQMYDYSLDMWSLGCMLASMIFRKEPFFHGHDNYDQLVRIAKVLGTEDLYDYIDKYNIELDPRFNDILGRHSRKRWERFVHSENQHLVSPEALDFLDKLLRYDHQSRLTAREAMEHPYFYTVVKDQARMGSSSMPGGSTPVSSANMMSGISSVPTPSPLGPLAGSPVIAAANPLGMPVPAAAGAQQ
T1 sequence (P67870 whole entry partner): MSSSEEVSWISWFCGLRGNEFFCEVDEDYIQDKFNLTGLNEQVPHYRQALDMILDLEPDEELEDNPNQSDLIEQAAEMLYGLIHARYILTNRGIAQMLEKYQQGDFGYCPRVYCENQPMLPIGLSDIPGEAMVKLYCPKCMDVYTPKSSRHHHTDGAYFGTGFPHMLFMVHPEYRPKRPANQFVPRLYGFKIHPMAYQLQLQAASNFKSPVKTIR

Question: Which results are given for CSc1ccc(/C=C/C=C/C(=O)N2CCCCC2)cc1 [YU2014, (2E,4E)-5-(4-(methylthio)phenyl)-1-(piperidine-1-yl)penta-2,4-dien-1-one]?
Answer: Fgf21 mRNA level (FIG. 12) [1]: almost no increase; also recorded: no effect; Fas mRNA level (FIG. 13) [2]: reduce; Srebp1c mRNA level (FIG. 14) [3]: reduce; CK2 activity (FIG. 21) [4]: did not have a CK2 activity reducing effect
